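These data come from cells grown in 96-well plates and exposed to compound for 48 hours at five concentrations. At the GI50, growth is halved. TGI marks complete inhibition of growth.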
Tests used:
Test in all cases: growth of human tumour cells (NCI), 48 h
A498 renal = test system: A498 renal
NCI-H522 lung = test system: NCI-H522 lung
SK-OV-3 ovarian = test system: SK-OV-3 ovarian
UACC-62 melanoma = test system: UACC-62 melanoma
NCI-H23 lung = test system: NCI-H23 lung
COLO 205 colon = test system: COLO 205 colon
MDA-MB-435 = test system: MDA-MB-435
MDA-MB-231 breast = test system: MDA-MB-231 breast
CCRF-CEM leukemia = test system: CCRF-CEM leukemia
M14 melanoma = test system: M14 melanoma
UO-31 renal = test system: UO-31 renal
CAKI-1 renal = test system: CAKI-1 renal
MCF7 breast = test system: MCF7 breast
SNB-19 CNS = test system: SNB-19 CNS
PC-3 prostate = test system: PC-3 prostate
SW-620 colon = test system: SW-620 colon
OVCAR-8 ovarian = test system: OVCAR-8 ovarian
EKVX NSCLC = test system: EKVX NSCLC
TK-10 renal = test system: TK-10 renal
ACHN renal = test system: ACHN renal
OVCAR-5 ovarian = test system: OVCAR-5 ovarian
HCT-15 colon = test system: HCT-15 colon
SNB-75 CNS = test system: SNB-75 CNS
SK-MEL-2 melanoma = test system: SK-MEL-2 melanoma
BT-549 breast = test system: BT-549 breast
HOP-92 NSCLC = test system: HOP-92 NSCLC
OVCAR-3 ovarian = test system: OVCAR-3 ovarian
KM12 colon = test system: KM12 colon
NCI/ADR-RES ovarian = test system: NCI/ADR-RES ovarian
LOX IMVI melanoma = test system: LOX IMVI melanoma
MOLT-4 leukemia = test system: MOLT-4 leukemia
HCC-2998 colon = test system: HCC-2998 colon
RPMI-8226 leukemia = test system: RPMI-8226 leukemia
UACC-257 melanoma = test system: UACC-257 melanoma
SF-539 CNS = test system: SF-539 CNS
HCT-116 colon = test system: HCT-116 colon
T-47D breast = test system: T-47D breast
HL-60(TB) leukemia = test system: HL-60(TB) leukemia
SK-MEL-5 melanoma = test system: SK-MEL-5 melanoma
HT29 colon = test system: HT29 colon
HS 578T breast = test system: HS 578T breast
U251 CNS = test system: U251 CNS
786-0 renal = test system: 786-0 renal
SF-268 CNS = test system: SF-268 CNS
SN12C renal = test system: SN12C renal
DU-145 prostate = test system: DU-145 prostate
OVCAR-4 ovarian = test system: OVCAR-4 ovarian
K-562 leukemia = test system: K-562 leukemia
SF-295 CNS = test system: SF-295 CNS
NCI-H460 lung = test system: NCI-H460 lung
HOP-62 NSCLC = test system: HOP-62 NSCLC
NCI-H226 lung = test system: NCI-H226 lung
MALME-3M melanoma = test system: MALME-3M melanoma
RXF 393 renal = test system: RXF 393 renal

Question: For `CCn1cc(C(=O)N/N=C/c2ccc(Br)cc2)c(=O)c2cc(F)c(N3CCNC(C)C3)c(F)c21` (stereo not drawn), which GI50 (A498 renal) is on record?
Answer: 1.78 µM

Question: What about the TGI (A498 renal) of the same compound?
Answer: 5.3 µM

Question: And the GI50 (NCI-H522 lung)?
Answer: 1.85 µM

Question: What about the TGI (NCI-H522 lung) of the same compound?
Answer: 3.55 µM

Question: What about the GI50 (SK-OV-3 ovarian) of the same compound?
Answer: 1.93 µM

Question: And the TGI (SK-OV-3 ovarian)?
Answer: 3.68 µM

Question: And the GI50 (UACC-62 melanoma)?
Answer: 1.88 µM

Question: What about the TGI (UACC-62 melanoma) of the same compound?
Answer: 3.36 µM

Question: What about the GI50 (NCI-H23 lung) of the same compound?
Answer: 1.84 µM

Question: What about the TGI (NCI-H23 lung) of the same compound?
Answer: 3.54 µM

Question: What about the GI50 (COLO 205 colon) of the same compound?
Answer: 1.76 µM

Question: And the TGI (COLO 205 colon)?
Answer: 3.42 µM

Question: What about the GI50 (MDA-MB-435) of the same compound?
Answer: 1.73 µM

Question: What about the TGI (MDA-MB-435) of the same compound?
Answer: 3.15 µM

Question: And the GI50 (MDA-MB-231 breast)?
Answer: 1.84 µM

Question: What about the TGI (MDA-MB-231 breast) of the same compound?
Answer: 3.37 µM

Question: And the GI50 (CCRF-CEM leukemia)?
Answer: 1.49 µM

Question: And the TGI (CCRF-CEM leukemia)?
Answer: 3.52 µM

Question: What about the GI50 (M14 melanoma) of the same compound?
Answer: 1.91 µM

Question: What about the TGI (M14 melanoma) of the same compound?
Answer: 3.59 µM

Question: What about the GI50 (UO-31 renal) of the same compound?
Answer: 1.56 µM

Question: And the TGI (UO-31 renal)?
Answer: 2.92 µM

Question: And the GI50 (CAKI-1 renal)?
Answer: 1.68 µM

Question: And the TGI (CAKI-1 renal)?
Answer: 3.08 µM

Question: What about the GI50 (MCF7 breast) of the same compound?
Answer: 1.56 µM

Question: What about the TGI (MCF7 breast) of the same compound?
Answer: 3.13 µM

Question: And the GI50 (SNB-19 CNS)?
Answer: 1.7 µM

Question: What about the TGI (SNB-19 CNS) of the same compound?
Answer: 3.08 µM

Question: What about the GI50 (PC-3 prostate) of the same compound?
Answer: 1.62 µM

Question: What about the TGI (PC-3 prostate) of the same compound?
Answer: 3.14 µM

Question: And the GI50 (SW-620 colon)?
Answer: 1.71 µM

Question: And the TGI (SW-620 colon)?
Answer: 3.18 µM

Question: What about the GI50 (OVCAR-8 ovarian) of the same compound?
Answer: 1.74 µM

Question: And the TGI (OVCAR-8 ovarian)?
Answer: 3.32 µM

Question: What about the GI50 (EKVX NSCLC) of the same compound?
Answer: 1.59 µM

Question: And the TGI (EKVX NSCLC)?
Answer: 3.11 µM

Question: And the GI50 (TK-10 renal)?
Answer: 1.74 µM

Question: What about the TGI (TK-10 renal) of the same compound?
Answer: 3.17 µM

Question: And the GI50 (ACHN renal)?
Answer: 1.69 µM

Question: What about the TGI (ACHN renal) of the same compound?
Answer: 3.06 µM

Question: What about the GI50 (OVCAR-5 ovarian) of the same compound?
Answer: 1.73 µM

Question: What about the TGI (OVCAR-5 ovarian) of the same compound?
Answer: 3.22 µM

Question: And the GI50 (HCT-15 colon)?
Answer: 1.44 µM

Question: And the TGI (HCT-15 colon)?
Answer: 2.93 µM

Question: And the GI50 (SNB-75 CNS)?
Answer: 1.57 µM

Question: What about the TGI (SNB-75 CNS) of the same compound?
Answer: 2.99 µM

Question: And the GI50 (SK-MEL-2 melanoma)?
Answer: 2.02 µM

Question: And the TGI (SK-MEL-2 melanoma)?
Answer: 4.1 µM

Question: And the GI50 (BT-549 breast)?
Answer: 1.59 µM

Question: And the TGI (BT-549 breast)?
Answer: 3.23 µM

Question: And the GI50 (HOP-92 NSCLC)?
Answer: 1.21 µM

Question: And the TGI (HOP-92 NSCLC)?
Answer: 2.58 µM

Question: What about the GI50 (OVCAR-3 ovarian) of the same compound?
Answer: 1.79 µM

Question: What about the TGI (OVCAR-3 ovarian) of the same compound?
Answer: 3.38 µM

Question: What about the GI50 (KM12 colon) of the same compound?
Answer: 1.86 µM

Question: What about the TGI (KM12 colon) of the same compound?
Answer: 3.5 µM

Question: What about the GI50 (NCI/ADR-RES ovarian) of the same compound?
Answer: 1.95 µM

Question: What about the TGI (NCI/ADR-RES ovarian) of the same compound?
Answer: 3.69 µM

Question: What about the GI50 (LOX IMVI melanoma) of the same compound?
Answer: 1.75 µM

Question: What about the TGI (LOX IMVI melanoma) of the same compound?
Answer: 3.25 µM

Question: And the GI50 (MOLT-4 leukemia)?
Answer: 1.68 µM

Question: And the TGI (MOLT-4 leukemia)?
Answer: 3.47 µM

Question: And the GI50 (HCC-2998 colon)?
Answer: 1.88 µM

Question: What about the TGI (HCC-2998 colon) of the same compound?
Answer: 3.57 µM

Question: What about the GI50 (RPMI-8226 leukemia) of the same compound?
Answer: 1.85 µM

Question: What about the TGI (RPMI-8226 leukemia) of the same compound?
Answer: 3.82 µM

Question: And the GI50 (UACC-257 melanoma)?
Answer: 1.68 µM

Question: What about the TGI (UACC-257 melanoma) of the same compound?
Answer: 3.21 µM

Question: And the GI50 (SF-539 CNS)?
Answer: 1.69 µM

Question: What about the TGI (SF-539 CNS) of the same compound?
Answer: 3.1 µM

Question: What about the GI50 (HCT-116 colon) of the same compound?
Answer: 1.54 µM

Question: And the TGI (HCT-116 colon)?
Answer: 3.16 µM

Question: And the GI50 (T-47D breast)?
Answer: 1.65 µM

Question: And the TGI (T-47D breast)?
Answer: 3.47 µM

Question: And the GI50 (HL-60(TB) leukemia)?
Answer: 1.88 µM

Question: What about the TGI (HL-60(TB) leukemia) of the same compound?
Answer: 3.8 µM

Question: And the GI50 (SK-MEL-5 melanoma)?
Answer: 1.94 µM

Question: What about the TGI (SK-MEL-5 melanoma) of the same compound?
Answer: 4.03 µM

Question: And the GI50 (HT29 colon)?
Answer: 1.68 µM

Question: And the TGI (HT29 colon)?
Answer: 3.18 µM

Question: What about the GI50 (HS 578T breast) of the same compound?
Answer: 1.99 µM

Question: What about the TGI (HS 578T breast) of the same compound?
Answer: 5.9 µM

Question: What about the GI50 (U251 CNS) of the same compound?
Answer: 1.66 µM

Question: What about the TGI (U251 CNS) of the same compound?
Answer: 3.12 µM

Question: What about the GI50 (786-0 renal) of the same compound?
Answer: 1.68 µM

Question: And the TGI (786-0 renal)?
Answer: 3.21 µM

Question: What about the GI50 (SF-268 CNS) of the same compound?
Answer: 1.78 µM

Question: And the TGI (SF-268 CNS)?
Answer: 3.45 µM

Question: What about the GI50 (SN12C renal) of the same compound?
Answer: 1.57 µM

Question: And the TGI (SN12C renal)?
Answer: 3.01 µM

Question: And the GI50 (DU-145 prostate)?
Answer: 1.74 µM

Question: And the TGI (DU-145 prostate)?
Answer: 3.18 µM

Question: And the GI50 (OVCAR-4 ovarian)?
Answer: 2.48 µM

Question: And the TGI (OVCAR-4 ovarian)?
Answer: 7.54 µM

Question: What about the GI50 (K-562 leukemia) of the same compound?
Answer: 1.5 µM

Question: What about the TGI (K-562 leukemia) of the same compound?
Answer: 3.17 µM

Question: What about the GI50 (SF-295 CNS) of the same compound?
Answer: 1.85 µM

Question: What about the TGI (SF-295 CNS) of the same compound?
Answer: 3.51 µM

Question: What about the GI50 (NCI-H460 lung) of the same compound?
Answer: 1.61 µM

Question: What about the TGI (NCI-H460 lung) of the same compound?
Answer: 3.16 µM

Question: And the GI50 (HOP-62 NSCLC)?
Answer: 1.72 µM

Question: What about the TGI (HOP-62 NSCLC) of the same compound?
Answer: 3.17 µM

Question: What about the GI50 (NCI-H226 lung) of the same compound?
Answer: 2.15 µM

Question: What about the TGI (NCI-H226 lung) of the same compound?
Answer: 6.13 µM

Question: What about the GI50 (MALME-3M melanoma) of the same compound?
Answer: 1.78 µM

Question: What about the TGI (MALME-3M melanoma) of the same compound?
Answer: 3.42 µM

Question: What about the GI50 (RXF 393 renal) of the same compound?
Answer: 1.63 µM

Question: And the TGI (RXF 393 renal)?
Answer: 3.07 µM

Reference: PubChem BioAssay (NCI)
